Measured values taken from patent publication US9399649B2, “Compounds for treating spinal muscular atrophy” (PTC Therapeutics Inc., priority 2012, dated 2016).

Tests used:
Smn protein = Smn protein assay in cultured cells (SMN HTRF); type: cell-based, human; settings: SMA patient fibroblast cells (GM03813), 48 hours; for maximum fold (Fold) increase of Smn protein: 7-point concentration data, relative to vehicle control; for EC1.5x for Smn protein expression: 7-point concentration curve, concentration producing 1.5 times Smn protein vs DMSO vehicle
Summary of the method: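 Smn protein measured by HTRF (anti-SMN d2/kryptate) in lysates of SMA patient fibroblasts after 48 h compound treatment, 7-point 3.16-fold dilutions, triplicates. The 665/620 nm ratio is blank-corrected to ΔF, then divided by the vehicle ΔF to give fold increase.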

[1] = tested on: full length SMN2 minigene mRNA containing SMN2 exon 7; assay: SMN2 minigene mRNA splicing RT-qPCR assay in cultured cells; type: cell-based, human; settings: Homo sapiens, HEK293-H; HEK293H cells stably transfected with SMN2-A minigene, 24 hours, 7-point concentration curve; concentration giving 1.5-fold full length SMN2 mRNA vs vehicle; read-out: EC1.5x for production of full length SMN2 mRNA
Summary of the method: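 Read-out is minigene FL mRNA (exon 7 included) relative to vehicle, from efficiency-corrected ΔΔCt with GAPDH normalisation. Primers and probe span exon 7, exon 8 and luciferase, so endogenous SMN is not detected. Stable SMN2-A minigene HEK293H cells, 24 h compound exposure at 37 °C, 7-point curve in duplicate.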

Structure (SMILES)	maximum fold (Fold) increase of Smn protein (Smn protein)	melting point	EC (1.5-fold) [1]	EC1.5x for Smn protein expression (Smn protein)
O=c1oc(-c2ccc3c(c2)OCO3)cc2ccc(N3CCNCC3)cc12 [Cpd 12, 3-(1,3-benzodioxol-5-yl)-7-(piperazin-1-yl)-1H-isochromen-1-one]	** (a fold increase between >1.2 and ≦1.35 is indicated by two stars (**))	267 to 269 °C	0.3 to 1 µM	–
CCCN1CCC(c2ccc3cc(-c4cn5cc(C)nc(C)c5n4)oc(=O)c3c2)CC1 [Cpd 116, 3-(6,8-dimethylimidazo[1,2-a]pyrazin-2-yl)-7-(1-propylpiperidin-4-yl)-1H-isochromen-1-one]	**** (a fold increase between >1.5 and ≦1.65 is indicated by four stars (****))	204 to 206 °C	≤ 0.1 µM	*** (an EC1.5× between >0.3 nM and ≦1 nM is indicated by three stars (***))
Cc1cn2cc(-c3cc4ccc(N5C[C@@H](C)N(C)[C@@H](C)C5)cc4c(=O)o3)nc2cn1 [Cpd 131, 3-(6-methylimidazo[1,2-a]pyrazin-2-yl)-7-[(3R,5S)-3,4,5-trimethylpiperazin-1-yl]-1H-isochromen-1-one]	***** (a fold increase >1.65 is indicated by five stars (*****))	279 to 284 °C	≤ 0.1 µM	**** (an EC1.5×≦0.3 nM is indicated by four stars (****))
CCOc1ccc(-c2cc3ccc(N4CCN[C@@H](C)C4)cc3c(=O)o2)cc1 [Cpd 42, 3-(4-ethoxyphenyl)-7-[(3S)-3-methylpiperazin-1-yl]-1H-isochromen-1-one]	** (a fold increase between >1.2 and ≦1.35 is indicated by two stars (**))	239 to 240 °C	0.1 to 0.3 µM	–
Cc1cn2cc(-c3cc4ccc(N5CCN(C(C)C)[C@@H](C)C5)cc4c(=O)o3)nc2c(C)n1 [Cpd 138, 3-(6,8-dimethylimidazo[1,2-a]pyrazin-2-yl)-7-[(3S)-3-methyl-4-(propan-2-yl)piperazin-1-yl]-1H-isochromen-1-one]	**** (a fold increase between >1.5 and ≦1.65 is indicated by four stars (****))	266 to 271 °C	0.1 to 0.3 µM	*** (an EC1.5× between >0.3 nM and ≦1 nM is indicated by three stars (***))
COCCN1CCN(c2ccc3cc(-c4cn5cc(C)nc(C)c5n4)oc(=O)c3c2)C[C@@H]1C [Cpd 146, 3-(6,8-dimethylimidazo[1,2-a]pyrazin-2-yl)-7-[(3S)-4-(2-methoxyethyl)-3-methylpiperazin-1-yl]-1H-isochromen-1-one]	***** (a fold increase >1.65 is indicated by five stars (*****))	221 to 226 °C	0.1 to 0.3 µM	**** (an EC1.5×≦0.3 nM is indicated by four stars (****))
Cc1cn2cc(-c3cc4ccc(C5CCNCC5)cc4c(=O)o3)nc2c(C)n1 [Cpd 96, 3-(6,8-dimethylimidazo[1,2-a]pyrazin-2-yl)-7-(piperidin-4-yl)-1H-isochromen-1-one]	***** (a fold increase >1.65 is indicated by five stars (*****))	218 to 220 °C	≤ 0.1 µM	**** (an EC1.5×≦0.3 nM is indicated by four stars (****))
COc1cc(-c2cc3ccc(N4CCN[C@@H](C)C4)cc3c(=O)o2)ccc1F [Cpd 47, 3-(4-fluoro-3-methoxyphenyl)-7-[(3S)-3-methylpiperazin-1-yl]-1H-isochromen-1-one]	* (A maximum fold increase of ≦1.2 is indicated by one star (*))	118 to 120 °C	3 to 30 µM	–
COc1ccc(-c2cc3ccc(N4CCNCC4)cc3c(=O)o2)cc1OC [Cpd 3, 3-(3,4-dimethoxyphenyl)-7-(piperazin-1-yl)-1H-isochromen-1-one]	**** (a fold increase between >1.5 and ≦1.65 is indicated by four stars (****))	142 to 143 °C	≤ 0.1 µM	*** (an EC1.5× between >0.3 nM and ≦1 nM is indicated by three stars (***))
